From patent US20060067916A1, “Sperm cell process system” (XY, Inc., priority 2002, published 2006)

Test system: stallion sperm cells
Assay: Motility of Hoechst-stained stallion sperm diluted in KMT with or without stimulant (Example 5)
Format: cell-based
Set-up: Motility 3h: unit not given here
Conditions: for Motility 3h / Progressive 3h: Motility Stimulants, 2 mM caffeine or 2.5 mM NaPyruvate in KMT; for Motility 3h with stimulant / Progressive 3h with stimulant: in % (unit assumed)
Procedure: Sperm cells in ejaculates from three stallions were initially evaluated for volume, concentration, and motility. The remaining portion of each ejaculate was extended in KMT to 25×10^6 sperm/mL and stored at RT for 18 hr. The stored ejaculates were pelleted by centrifugation at 600 g for 10 min. Pelleted sperm cells were resuspended in KMT with Hoechst to generate sperm samples of 400×10^6 sperm/mL,12.4 μl Hoechst, adjusted to either 7.1 pH or 7.9 pH, and then incubated at 34° C. for either 30 min or 60 min. Stained sperm cell samples were extended with either 1 mL KMT with 1.5 μl/mL 5% red food dye; 1 mL KMT with 2.0 μl/mL 5% red food dye; 1 mL KMT with 2.5 μl/mL 5% red food dye; or 1 mL KMT with 3.0 μl/mL […] red food dye. Sperm cell samples were then evaluated for % dead and resolution by flow cytometry analysis, and motility was evaluated by further diluting treated samples in either 140 μl KMT: 20 μl sperm cells; 140 μl KMT 2 mM caffeine: 20 μl sperm cells; 140 μl KMT, 2.5 mM NaPyruvate: 20 μl sperm cells.

[1] = stain time 30 min (12 samples only)
[2] = stain time 60 min (12 samples only)

## Cn1c(=O)c2c(ncn2C)n(C)c1=O [Caffeine, caffeine]
  Motility 3h: 67.71
  Progressive 3h: 66.56
About 2 mM
  Effect of stimulant on sperm cell motility (FIG. 5): stimulate motility
Food coloring 1.5 μl/mL
  Motility 3h with stimulant: 66.67
  Progressive 3h with stimulant: 65.42
Food coloring 2 μl/mL
  Motility 3h with stimulant: 68.33
  Progressive 3h with stimulant: 67.5
Food coloring 2.5 μl/mL
  Motility 3h with stimulant: 68.75
  Progressive 3h with stimulant: 67.92
Food coloring 3 μl/mL
  Motility 3h with stimulant: 67.08
  Progressive 3h with stimulant: 65.42
pH 7.1, stain time 30 min
  Motility 3h with stimulant: 66.67
  Progressive 3h with stimulant: 65
pH 7.1, stain time 60 min
  Motility 3h with stimulant: 70
  Progressive 3h with stimulant: 70
pH 7.9, stain time 30 min
  Motility 3h with stimulant: 66.67
  Progressive 3h with stimulant: 65
pH 7.9, stain time 60 min
  Motility 3h with stimulant: 67.5
  Progressive 3h with stimulant: 65.83
Stain pH 7.1
  Motility 3h with stimulant: 68.54
  Progressive 3h with stimulant: 67.5
Stain pH 7.9
  Motility 3h with stimulant: 66.88
  Progressive 3h with stimulant: 65.63
[1]
  Motility 3h with stimulant: 66.67
  Progressive 3h with stimulant: 65
[2]
  Motility 3h with stimulant: 68.75
  Progressive 3h with stimulant: 67.92
Stallion Gunsmoke
  Motility 3h with stimulant: 66.25
  Progressive 3h with stimulant: 63.13
Stallion Rowdy
  Motility 3h with stimulant: 67.5
  Progressive 3h with stimulant: 67.5
Stallion Sylekt
  Motility 3h with stimulant: 69.38
  Progressive 3h with stimulant: 69.06

## CC(=O)C(=O)O [Pyruvate, NaPyruvate]
  Motility 3h: 65.1
  Progressive 3h: 62.29
Food coloring 1.5 μl/mL
  Motility 3h with stimulant: 64.58
  Progressive 3h with stimulant: 62.08
Food coloring 2 μl/mL
  Motility 3h with stimulant: 65
  Progressive 3h with stimulant: 60.83
Food coloring 2.5 μl/mL
  Motility 3h with stimulant: 65.83
  Progressive 3h with stimulant: 64.58
Food coloring 3 μl/mL
  Motility 3h with stimulant: 65
  Progressive 3h with stimulant: 61.67
pH 7.1, stain time 30 min
  Motility 3h with stimulant: 64.17
  Progressive 3h with stimulant: 60.83
pH 7.1, stain time 60 min
  Motility 3h with stimulant: 67.5
  Progressive 3h with stimulant: 66.67
pH 7.9, stain time 30 min
  Motility 3h with stimulant: 65
  Progressive 3h with stimulant: 60
pH 7.9, stain time 60 min
  Motility 3h with stimulant: 64.17
  Progressive 3h with stimulant: 62.5
Stain pH 7.1
  Motility 3h with stimulant: 65.83
  Progressive 3h with stimulant: 63.13
Stain pH 7.9
  Motility 3h with stimulant: 64.38
  Progressive 3h with stimulant: 61.46
[1]
  Motility 3h with stimulant: 64.58
  Progressive 3h with stimulant: 60.42
[2]
  Motility 3h with stimulant: 65.83
  Progressive 3h with stimulant: 64.58
Stallion Gunsmoke
  Motility 3h with stimulant: 62.19
  Progressive 3h with stimulant: 56.56
Stallion Rowdy
  Motility 3h with stimulant: 67.19
  Progressive 3h with stimulant: 67.19
Stallion Sylekt
  Motility 3h with stimulant: 65.94
  Progressive 3h with stimulant: 63.13
